From ChEMBL document CHEMBL1201862, “PubChem BioAssay data set” (2004)
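Test compounds were applied to cells in 96-well plates for 48 hours at 5 doses. GI50 marks 50% less growth.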 Active and inactive are the calls of the source. Rule as the data show it: active = GI50 up to about 1.1 µM and inactive = higher.

Tests used:
Experiment in all cases: DTP human tumour cell line panel, 48 h
[1] = system: 786-0
[2] = system: A498
[3] = system: A549
[4] = system: DLD-1
[5] = system: EKVX
[6] = system: HOP-62
[7] = system: HT-29
[8] = system: IGROV-1
[9] = system: M14
[10] = system: NCI-H23
[11] = system: OVCAR-3
[12] = system: SF-539
[13] = system: SK-MEL-2
[14] = system: SNB-75
[15] = system: TK-10
[16] = system: UACC-62
[17] = system: UO-31
[18] = system: Hs-578T
[19] = system: MDA-N
[20] = system: PC-3

Structure (SMILES) | GI50 [1] | GI50 [2] | GI50 [3] | GI50 [4] | GI50 [5] | GI50 [6] | GI50 [7] | GI50 [8] | GI50 [9] | GI50 [10] | GI50 [11] | GI50 [12] | GI50 [13] | GI50 [14] | GI50 [15] | GI50 [16] | GI50 [17] | GI50 [18] | GI50 [19] | GI50 [20]
CC(C)N(C(=O)C12C3C4C5(C#N)C3C1(C#N)C5C42I)C(C)C (stereo not drawn) | > 100 µM (inactive) | > 100 µM (inactive) | > 59 µM (inactive) | > 42.6 µM (inactive) | > 100 µM (inactive) | > 100 µM (inactive) | > 100 µM (inactive) | > 100 µM (inactive) | > 100 µM (inactive) | > 100 µM (inactive) | > 100 µM (inactive) | > 100 µM (inactive) | > 100 µM (inactive) | > 59 µM (inactive) | > 100 µM (inactive) | > 100 µM (inactive) | > 100 µM (inactive) |  |  | 
COc1ccc(C2=Nc3ccccc3SC(C)C2)cc1 (stereo not drawn) | > 100 µM (inactive) | > 100 µM (inactive) | > 100 µM (inactive) | 81.8 µM (inactive) | > 100 µM (inactive) | > 100 µM (inactive) | 62.1 µM (inactive) | > 100 µM (inactive) | > 100 µM (inactive) | > 100 µM (inactive) | > 100 µM (inactive) | > 100 µM (inactive) | > 100 µM (inactive) | > 100 µM (inactive) | > 100 µM (inactive) | > 100 µM (inactive) | > 100 µM (inactive) |  |  | 
O=C(NCc1ccccc1)C1C(=O)C(=O)N(Cc2ccccc2)C1=O (stereo not drawn) | > 100 µM (inactive) | > 100 µM (inactive) | > 100 µM (inactive) | > 100 µM (inactive) | > 100 µM (inactive) | > 100 µM (inactive) | > 100 µM (inactive) | > 100 µM (inactive) | > 100 µM (inactive) | > 100 µM (inactive) | > 100 µM (inactive) | > 100 µM (inactive) | > 100 µM (inactive) | > 100 µM (inactive) | > 100 µM (inactive) | > 100 µM (inactive) | > 100 µM (inactive) |  |  | 
COc1ccccc1NC(=O)C1=C(C)NC(C)=C(C(=O)Nc2ccccc2OC)C1c1ccc(C(C)C)cc1 | > 100 µM (inactive) | > 100 µM (inactive) | 40.1 µM (inactive) | > 100 µM (inactive) | 33 µM (inactive) | > 100 µM (inactive) | > 100 µM (inactive) | > 100 µM (inactive) | > 100 µM (inactive) | > 100 µM (inactive) | > 100 µM (inactive) | > 100 µM (inactive) | > 100 µM (inactive) | 27 µM (inactive) | > 100 µM (inactive) | > 100 µM (inactive) | 29 µM (inactive) |  |  | 
O=C(NCc1ccccc1)c1cc2ccc(O)c(O)c2cn1 | 18 µM (inactive) | > 100 µM (inactive) | 38.5 µM (inactive) | 18.5 µM (inactive) | > 100 µM (inactive) | 21.3 µM (inactive) | 44.1 µM (inactive) | 23.7 µM (inactive) | 5.21 µM (inactive) | 12.1 µM (inactive) | 18.2 µM (inactive) | 18.2 µM (inactive) | 12.4 µM (inactive) | 17.8 µM (inactive) | > 100 µM (inactive) | 18.5 µM (inactive) | 18.1 µM (inactive) |  |  | 
CN1C(=O)C2C(C1=O)C1(O)c3ccccc3C2(N)c2ccccc21 (stereo not drawn) | > 100 µM (inactive) | 35.2 µM (inactive) | > 100 µM (inactive) | > 100 µM (inactive) | > 100 µM (inactive) | > 100 µM (inactive) | > 100 µM (inactive) | > 100 µM (inactive) | > 100 µM (inactive) | > 100 µM (inactive) | > 100 µM (inactive) | > 100 µM (inactive) | > 100 µM (inactive) | > 100 µM (inactive) | > 100 µM (inactive) | > 100 µM (inactive) | > 100 µM (inactive) |  |  | 
COC(=O)C12OCC34C(CC5C(C)=C(O)C(=O)CC5(C)C3C(O)C1O)OC(=O)C(OC(=O)C=C(C)C)C24 (stereo not drawn) | 0.275 µM (active) | > 500 µM (inactive) | > 500 µM (inactive) | 108 µM (inactive) | > 469 µM (inactive) | > 500 µM (inactive) | > 500 µM (inactive) | 330 µM (inactive) | < 0.215 µM (active) | > 469 µM (inactive) |  | > 500 µM (inactive) | > 500 µM (inactive) | 318 µM (inactive) | < 0.215 µM (active) | > 500 µM (inactive) | > 500 µM (inactive) | < 0.215 µM (active) | < 0.215 µM (active) | 0.23 µM (active)
O=[N+]([O-])c1ccc(C2N3CCCCC3[C@H]3CCCCN23)cc1 (stereo partly drawn) | > 100 µM (inactive) | > 100 µM (inactive) | > 100 µM (inactive) | > 100 µM (inactive) | > 100 µM (inactive) | > 100 µM (inactive) | > 100 µM (inactive) | > 100 µM (inactive) | > 100 µM (inactive) | > 100 µM (inactive) | > 100 µM (inactive) | > 100 µM (inactive) | > 100 µM (inactive) | > 100 µM (inactive) | > 100 µM (inactive) | > 100 µM (inactive) | > 100 µM (inactive) |  |  | 
COc1cc2c3c(c1OC)-c1cc4c(cc1CC3(C#N)N(C(=O)c1ccccc1)CC2)OCO4 (stereo not drawn) | 29.1 µM (inactive) | 41.1 µM (inactive) | 37.5 µM (inactive) | > 55.7 µM (inactive) | 45.8 µM (inactive) | 42.1 µM (inactive) | > 100 µM (inactive) | 33 µM (inactive) | 54.2 µM (inactive) | 25.5 µM (inactive) | 40.5 µM (inactive) | 17.7 µM (inactive) | 46.6 µM (inactive) | 9.12 µM (inactive) | 36 µM (inactive) | 16.4 µM (inactive) | 51.2 µM (inactive) | 19.6 µM (inactive) | > 100 µM (inactive) | > 76.4 µM (inactive)
CCC1C(=O)OCc2c1cc1n(c2=O)Cc2ccccc2-1 (stereo not drawn) | > 100 µM (inactive) | > 100 µM (inactive) | > 100 µM (inactive) | > 100 µM (inactive) | > 100 µM (inactive) | > 100 µM (inactive) | > 100 µM (inactive) | > 100 µM (inactive) | > 100 µM (inactive) | > 100 µM (inactive) | > 100 µM (inactive) | > 100 µM (inactive) | > 100 µM (inactive) | > 100 µM (inactive) | > 100 µM (inactive) | > 100 µM (inactive) | > 100 µM (inactive) |  |  | 
CC(=O)c1c(C)[n+]([O-])c2cc(C)c(C)cc2[n+]1[O-] | > 100 µM (inactive) | > 100 µM (inactive) | > 100 µM (inactive) | > 100 µM (inactive) | > 100 µM (inactive) | > 100 µM (inactive) | 65.8 µM (inactive) | > 100 µM (inactive) | > 100 µM (inactive) | > 100 µM (inactive) | > 100 µM (inactive) | > 100 µM (inactive) | > 100 µM (inactive) | > 100 µM (inactive) | > 100 µM (inactive) | > 100 µM (inactive) | > 100 µM (inactive) |  |  | 
CCc1cccc(C)c1NC(=O)C1=C(C)NC(C)=C(C(=O)Nc2c(C)cccc2CC)C1c1ccc2c(c1)OCO2 | 16.7 µM (inactive) | 11.3 µM (inactive) | 16.9 µM (inactive) | 20.5 µM (inactive) | 20.5 µM (inactive) | 20.7 µM (inactive) | 20.8 µM (inactive) | 24.7 µM (inactive) | 16.1 µM (inactive) | 16.5 µM (inactive) | 17.5 µM (inactive) | 19.7 µM (inactive) | 15.1 µM (inactive) | 9.84 µM (inactive) | 26.6 µM (inactive) |  | 15.3 µM (inactive) |  |  | 
